According to patent publication US11072588B2, “Barbituric acid derivatives comprising cationic and lipophilic groups” (UNIVERSITETET I TROMSØ—NORGES ARKTISKE UNIVERSITET, priority 2017, dated 2021):
Converted amounts (≈) assume the structure as drawn. Like-named read-outs stand apart in the source and are kept apart here.

Tests used:
[1] = Determination of haemolytic activity; format: cell-based; conditions: human red blood cells (washed, from heparinized fresh blood); human RBCs, 1 h, 37° C.; read-out: RBC: haemolytic activity against human RBCs (EC50)
Procedure: Hemolysis was determined using a heparinized fraction (1000 IU/mL) of freshly drawn blood. Blood collected in EDTA containing test tubes (Vacutest®, KIMA, Arzergrande, Italy) was used for determination of the hematocrit (hct). The heparinized blood was washed 3× with pre-warmed PBS and adjusted to a final hct of 4%. Derivatives in DMSO (50 mM) were added to a 96-well polypropylene V-bottom plate (NUNC, Fisher Scientific, Oslo, Norway) and serially diluted. The test concentration range was 500-4 μM with DMSO contents ≤1%. A solution of 1% triton X-100 was used as positive control for 100% hemolysis. As negative control a solution of 1% DMSO in PBS buffer was included. No signs of DMSO toxicity were detected. RBCs (1% v/v final concentration) were added to the well plate and incubated at 37° C. and 800 rpm for 1 h. After centrifugation (5 min, 3000 g), 100 μL of each well were transferred to a 96-well flat bottom plate and absorbance was measured at 545 nm with a microplate reader (VersaMax™, Molecular Devices, Sunnyvale, Calif., USA). The percentage of hemolysis was calculated as the ratio of the absorbance in the derivative-treated and surfactant treated samples, corrected for the PBS background. Three independent experiments were performed and EC50 values are presented as averages.

S. aureus IHT 99040 = assay: MIC, multi-resistant clinical isolate; format: cell-based, Staphylococcus aureus; conditions: for selectivity index (EC50/MIC): RBC EC50 / MIC; for MIC: Staphylococcus aureus, IHT99040, read-out: Antimicrobial activity (MIC)
Procedure: (§1) Working solutions of the test derivatives were prepared with up to 100% DMSO and stored at −20° C. If necessary, the solutions were heated to 40-80° C. before testing to facilitate complete dissolution. Double-distilled water was used in all dilutions prepared. […] A microdilution susceptibility test was used for MIC determination according to Clinical and Laboratory Standards Institute, “Methods for Dilution Antimicrobial Sisceptibility Tests for Bacteria That Graw Aerobically”, Approved Standard M07-A9, edition 2012, with modifications as described by Igumnova et al (Bioorg Med Chem, 2016, 24 (22), 5884-5894).
(§2) Briefly, the bacterial inoculum was adjusted to approximately 2.5-3×10^4 cells/mL in Mueller-Hinton broth (MHB, Difco Laboratories, USA), and incubated in a ratio of 1:1 with test derivatives in polystyrene 96-well flat-bottom microplates (NUNC, Roskilde, Denmark). Positive growth control (without test derivatives) and negative control (without bacteria) were included. The reference antibiotic was oxytetracycline hydrochloride (Sigma Aldrich, Saint Louis, Mo., USA). The microplates were incubated in an EnVision microplate reader (Perkin-Elmer, Turku, Finland) placed in an incubator set to 35° C. for 48 h. The MIC value was defined as the lowest concentration of derivative resulting in no bacterial growth as determined by OD600 measurement. All derivatives were tested in three parallels.
(§3) The MIC was determined as explained above with some exceptions; working solutions of test derivatives were prepared from concentrated DMSO stocks stored at room temperature, the density of the bacterial inoculum was increased 40× to 1-1.2×10^6 cells/mL, enterococci were incubated in Brain Heart Infusion broth (BHIB, Difco Laboratories, USA), the microplates were incubated for 24 h, and the derivatives were tested in four parallels.

S. aureus N315 = assay: MIC, multi-resistant clinical isolate; format: cell-based, Staphylococcus aureus; conditions: for selectivity index (EC50/MIC): RBC EC50 / MIC, S. aureus N315; for MIC: Staphylococcus aureus, N315, read-out: Antimicrobial activity (MIC)
Procedure: as §1, §2, §3

S. aureus NCTC 10442 = assay: MIC, multi-resistant clinical isolate; format: cell-based, Staphylococcus aureus; conditions: for selectivity index (EC50/MIC): RBC EC50 / MIC, S. aureus NCTC 10442; for MIC: Staphylococcus aureus, NCTC10442, read-out: Antimicrobial activity (MIC)
Procedure: as §1, §2, §3

S. aureus strain 85/2082 = assay: MIC, multi-resistant clinical isolate; format: cell-based, Staphylococcus aureus; conditions: for selectivity index (EC50/MIC): RBC EC50 / MIC, S. aureus strain 85/2082; for MIC: Staphylococcus aureus, 85/2082, read-out: Antimicrobial activity (MIC)
Procedure: as §1, §2, §3

S. aureus strain WIS = assay: MIC, multi-resistant clinical isolate; format: cell-based, Staphylococcus aureus; conditions: for selectivity index (EC50/MIC): RBC EC50 / MIC, S. aureus strain WIS; for MIC: Staphylococcus aureus, read-out: Antimicrobial activity (MIC)
Procedure: as §1, §2, §3

P. aeruginosa 50692172 = assay: MIC, multi-resistant clinical isolate; format: cell-based, Pseudomonas aeruginosa; conditions: for MIC: Pseudomonas aeruginosa, read-out: Antimicrobial activity (MIC); for selectivity index (EC50/MIC): RBC EC50 / MIC
Procedure: as §1, §2, §3

P. aeruginosa 50692520 = assay: MIC, multi-resistant clinical isolate; format: cell-based, Pseudomonas aeruginosa; conditions: for MIC: Pseudomonas aeruginosa, read-out: Antimicrobial activity (MIC); for selectivity index (EC50/MIC): RBC EC50 / MIC
Procedure: as §1, §2, §3

P. aeruginosa K34-73 = assay: MIC, multi-resistant clinical isolate; format: cell-based, Pseudomonas aeruginosa; conditions: for MIC: Pseudomonas aeruginosa; for selectivity index (EC50/MIC): RBC EC50 / MIC
Procedure: as §1, §2, §3

P. aeruginosa K34-7 = assay: MIC, multi-resistant clinical isolate; format: cell-based, Pseudomonas aeruginosa; conditions: for MIC: Pseudomonas aeruginosa, K347, read-out: Antimicrobial activity (MIC); for selectivity index (EC50/MIC): RBC EC50 / MIC, P. aeruginosa K34-7
Procedure: as §1, §2, §3

P. aeruginosa K44-24 = assay: MIC, multi-resistant clinical isolate; format: cell-based, Pseudomonas aeruginosa; conditions: for MIC: Pseudomonas aeruginosa, K4424, read-out: Antimicrobial activity (MIC); for selectivity index (EC50/MIC): RBC EC50 / MIC
Procedure: as §1, §2, §3

K. pneumoniae 50531633 = assay: MIC, multi-resistant clinical isolate; format: cell-based, Klebsiella pneumoniae; conditions: K. pneumoniae 50531633, resistant to colistin; for MIC: Klebsiella pneumoniae, 24 h, read-out: Antimicrobial activity (MIC); for selectivity index (EC50/MIC): RBC EC50 / MIC
Procedure: as §1, §2, §3

K. pneumoniae 50625602 = assay: MIC, multi-resistant clinical isolate; format: cell-based, Klebsiella pneumoniae; conditions: for MIC: Klebsiella pneumoniae, read-out: Antimicrobial activity (MIC); for selectivity index (EC50/MIC): RBC EC50 / MIC
Procedure: as §1, §2, §3

K. pneumoniae 50667959 = assay: MIC, multi-resistant clinical isolate; format: cell-based, Klebsiella pneumoniae; conditions: for MIC: Klebsiella pneumoniae, read-out: Antimicrobial activity (MIC); for selectivity index (EC50/MIC): RBC EC50 / MIC
Procedure: as §1, §2, §3

K. pneumoniae K47-25 = assay: MIC, multi-resistant clinical isolate; format: cell-based, Klebsiella pneumoniae; conditions: for MIC: Klebsiella pneumoniae, K4725, 24 h, read-out: Antimicrobial activity (MIC); for selectivity index (EC50/MIC): RBC EC50 / MIC
Procedure: as §1, §2, §3

K. pneumoniae K66-45 = assay: MIC, multi-resistant clinical isolate; format: cell-based, Klebsiella pneumoniae; conditions: for MIC: Klebsiella pneumoniae, K6645, read-out: Antimicrobial activity (MIC); for selectivity index (EC50/MIC): RBC EC50 / MIC, K. pneumoniae K66-45
Procedure: as §1, §2, §3

[2] = system: antibiotic susceptible Gram-positive and Gram-negative reference strains; assay: MIC assay, ranges over the reference strains; format: cell-based
Procedure: as §1, §2

[3] = K. pneumoniae K47-25, resistant to colistin

Row | SMILES | EC50 at 1 h [1] | selectivity index (EC50/MIC) (S. aureus IHT 99040) | MIC (S. aureus IHT 99040) | selectivity index (EC50/MIC) (S. aureus N315) | MIC (S. aureus N315) | selectivity index (EC50/MIC) (S. aureus NCTC 10442) | MIC (S. aureus NCTC 10442) | selectivity index (EC50/MIC) (S. aureus strain 85/2082) | MIC (S. aureus strain 85/2082) | selectivity index (EC50/MIC) (S. aureus strain WIS) | MIC (S. aureus strain WIS) | MIC (P. aeruginosa 50692172) | selectivity index (EC50/MIC) (P. aeruginosa 50692172) | MIC (P. aeruginosa 50692520) | selectivity index (EC50/MIC) (P. aeruginosa 50692520) | selectivity index (EC50/MIC) (P. aeruginosa K34-73; P. aeruginosa K34-73) | MIC (P. aeruginosa K34-7) | selectivity index (EC50/MIC) (P. aeruginosa K34-7) | MIC (P. aeruginosa K44-24) | selectivity index (EC50/MIC) (P. aeruginosa K44-24) | other results
1 | CC(C)(C)c1cc(CC2(Cc3cc(C(C)(C)C)cc(C(C)(C)C)c3)C(=O)N(CCCCN)C(=O)N(CCCCN)C2=O)cc(C(C)(C)C)c1 [7(iii), 1,3-bis(4-aminobutyl)-5,5-bis(3,5-di-tert-butylbenzyl)-pyrimidin-2,4,6(1H,3H,5H)-trione] | < 4 µg/mL | (<2) | 2 µg/mL (≈ 2.96 µM) | (<2) | 2 µg/mL (≈ 2.96 µM) | (<2) | 2 µg/mL (≈ 2.96 µM) | (<2) | 2 µg/mL (≈ 2.96 µM) | (<2) | 2 µg/mL (≈ 2.96 µM) | 8 µg/mL (≈ 11.9 µM) | (<0.5) | 8 µg/mL (≈ 11.9 µM) | (<0.5) | (<2.5) | 8 µg/mL (≈ 11.9 µM) | (<0.5) | 8 µg/mL (≈ 11.9 µM) | (<0.5) | MIC (P. aeruginosa K34-73; K3473, read-out: Antimicrobial activity (MIC)): 16 µg/mL (≈ 23.7 µM); MIC (K. pneumoniae 50531633): 8 µg/mL (≈ 11.9 µM); selectivity index (EC50/MIC) (K. pneumoniae 50531633): (<0.5); MIC (K. pneumoniae 50625602): 8 µg/mL (≈ 11.9 µM); selectivity index (EC50/MIC) (K. pneumoniae 50625602): (<0.5); MIC (K. pneumoniae 50667959): 8 µg/mL (≈ 11.9 µM); selectivity index (EC50/MIC) (K. pneumoniae 50667959): (<0.5); MIC (K. pneumoniae K47-25): 16 µg/mL (≈ 23.7 µM); selectivity index (EC50/MIC) (K. pneumoniae K47-25; [3]): (<2.5); MIC (K. pneumoniae K66-45): 8 µg/mL (≈ 11.9 µM); selectivity index (EC50/MIC) (K. pneumoniae K66-45): (<0.5); MIC ([2]; range over S. aureus, C. glutamicum, E. coli, P. aeruginosa reference strains, read-out: MIC values against all the reference strains): 0.25 to 4 µg/mL (≈ 0.37 to 5.93 µM)
2 | N=C(N)NCCCCN1C(=O)N(CCCCNC(=N)N)C(=O)C(Cc2cc(Br)cc(Br)c2)(Cc2cc(Br)cc(Br)c2)C1=O [8(ii), 1,1′-(4,4′-(5,5-bis(3,5-dibromobenzyl)-2,4,6-trioxodihydropyrimidine-1,3(2H,4H)-diyl)bis(butane-4,1-diyl))diguanidine] | 56 µg/mL (≈ 65.9 µM) | (28) | 2 µg/mL (≈ 2.35 µM) | (28) | 2 µg/mL (≈ 2.35 µM) | (28) | 2 µg/mL (≈ 2.35 µM) | (28) | 2 µg/mL (≈ 2.35 µM) | (28) | 2 µg/mL (≈ 2.35 µM) | 8 µg/mL (≈ 9.41 µM) | (7) | 16 µg/mL (≈ 18.8 µM) | (4) | (7) | 8 µg/mL (≈ 9.41 µM) | (7) | 8 µg/mL (≈ 9.41 µM) | (7) | MIC (P. aeruginosa K34-73; K3473, P. aeruginosa K34-73, read-out: Antimicrobial activity (MIC)): 8 µg/mL (≈ 9.41 µM); MIC (K. pneumoniae 50531633): 4 µg/mL (≈ 4.7 µM); selectivity index (EC50/MIC) (K. pneumoniae 50531633): (14); MIC (K. pneumoniae 50625602): 4 µg/mL (≈ 4.7 µM); selectivity index (EC50/MIC) (K. pneumoniae 50625602): (14); MIC (K. pneumoniae 50667959): 4 µg/mL (≈ 4.7 µM); selectivity index (EC50/MIC) (K. pneumoniae 50667959): (14); MIC (K. pneumoniae K47-25; [3]): 4 µg/mL (≈ 4.7 µM); selectivity index (EC50/MIC) (K. pneumoniae K47-25; [3]): (14); MIC (K. pneumoniae K66-45): 4 µg/mL (≈ 4.7 µM); selectivity index (EC50/MIC) (K. pneumoniae K66-45): (14); MIC ([2]; reference strains, range, read-out: MIC values against the Gram-negative bacteria E. coli and P. aeruginosa): 1 to 4 µg/mL (≈ 1.18 to 4.7 µM)
